# Data reported in US20200024278A1, “COMPOSITION COMPRISING ANTIBIOTIC COMPOUND AND AN HETEROCYCLIC COMPOUND AND THEIR USE IN PREVENTING OR TREATING BACTERIAL INFECTIONS” (MUTABILIS, priority 2016, published 2020).
# Read-outs that look alike come from different tables or passages of the source.
# What was measured:
# Test in all cases: MIC, broth microdilution (CLSI), substance alone or ATB combined with compound at 4 or 8 μg/mL
# KPN 6299 = type: cell-based, K. pneumoniae
# How it was run: (§1)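 Growth inhibition endpoint, read visually after 16-20 h at 35° C in ambient air. Cation-adjusted Mueller-Hinton broth, inoculum 5·10^5 CFU/mL, CLSI M7-A7 protocol.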
# KPN UFR42 = type: cell-based, K. pneumoniae; conditions: KPN UFR42
# How it was run: as §1
# KPN BAA-1898 = type: cell-based, K. pneumoniae; conditions: KPN BAA-1898; for MIC: Klebsiella pneumoniae, BAA1898
# How it was run: as §1
# PAE UFR48 = type: cell-based, P. aeruginosa; conditions: PAE UFR48
# How it was run: as §1
# PAE 105250 = type: cell-based, P. aeruginosa; conditions: PAE 105250
# How it was run: as §1
# PAE UFR90 = type: cell-based, P. aeruginosa; conditions: PAE UFR90
# How it was run: as §1
smiles,measurement,setting,value
"COCC1=C(C(=O)O)N2C(=O)[C@@H](NC(=O)/C(=N\OC)c3csc(N)n3)[C@H]2SC1 [POD, Cefpodoxime, reference compound]",MIC ATB combined with Example 9 @4 μg/ml,KPN 6299; with Example 9 at 4 μg/ml,<0.031 µg/mL
same,MIC ATB combined with Example 11 @8 μg/ml,KPN 6299; with Example 11 at 8 μg/ml,<0.031 µg/mL
same,MIC ATB combined with Example 12 @8 μg/ml,KPN 6299; with Example 12 at 8 μg/ml,<0.031 µg/mL
same,MIC ATB combined with Example 13 @8 μg/ml,KPN 6299; with Example 13 at 8 μg/ml,0.125 µg/mL
same,MIC ATB combined with Example 14 @8 μg/ml,KPN 6299; with Example 14 at 8 μg/ml,<0.031 µg/mL
same,MIC ATB combined with Example 15 @4 μgml,KPN 6299; with Example 15 at 4 μg/ml,<0.031 µg/mL
same,MIC ATB combined with Example 16 @4 μg/ml,KPN 6299; with Example 16 at 4 μg/ml,<0.031 µg/mL
same,MIC ATB combined with Example 1 @8 μg/ml,KPN UFR42; with Example 1 at 8 μg/ml,>32 µg/mL
same,MIC ATB combined with Example 7 @8 μgml,KPN UFR42; with Example 7 at 8 μg/ml,>32 µg/mL
same,MIC ATB combined with Example 9 @4 μg/ml,KPN UFR42; with Example 9 at 4 μg/ml,>32 µg/mL
same,MIC ATB combined with Example 11 @8 μg/ml,KPN UFR42; with Example 11 at 8 μg/ml,<0.031 µg/mL
same,MIC ATB combined with Example 12 @8 μg/ml,KPN UFR42; with Example 12 at 8 μg/ml,<0.031 µg/mL
same,MIC ATB combined with Example 13 @8 μg/ml,KPN UFR42; with Example 13 at 8 μg/ml,>32 µg/mL
same,MIC ATB combined with Example 14 @8 μg/ml,KPN UFR42; with Example 14 at 8 μg/ml,<0.031 µg/mL
same,MIC ATB combined with Example 15 @4 μgml,KPN UFR42; with Example 15 at 4 μg/ml,<0.031 µg/mL
same,MIC ATB combined with Example 16 @4 μg/ml,KPN UFR42; with Example 16 at 4 μg/ml,<0.031 µg/mL
same,MIC,"KPN UFR42; Klebsiella pneumoniae, antibiotic alone, read-out: MIC ATB alone",> 256 µg/mL
same,MIC ATB combined with Example 1 @8 μg/ml,KPN BAA-1898; with Example 1 at 8 μg/ml,1 µg/mL
same,MIC ATB combined with Example 7 @8 μgml,KPN BAA-1898; with Example 7 at 8 μg/ml,2 µg/mL
same,MIC ATB combined with Example 9 @4 μg/ml,KPN BAA-1898; with Example 9 at 4 μg/ml,<0.031 µg/mL
same,MIC ATB combined with Example 11 @8 μg/ml,KPN BAA-1898; with Example 11 at 8 μg/ml,<0.031 µg/mL
same,MIC ATB combined with Example 12 @8 μg/ml,KPN BAA-1898; with Example 12 at 8 μg/ml,<0.031 µg/mL
same,MIC ATB combined with Example 13 @8 μg/ml,KPN BAA-1898; with Example 13 at 8 μg/ml,1 µg/mL
same,MIC ATB combined with Example 14 @8 μg/ml,KPN BAA-1898; with Example 14 at 8 μg/ml,<0.031 µg/mL
same,MIC ATB combined with Example 15 @4 μgml,KPN BAA-1898; with Example 15 at 4 μg/ml,<0.031 µg/mL
same,MIC ATB combined with Example 16 @4 μg/ml,KPN BAA-1898; with Example 16 at 4 μg/ml,<0.031 µg/mL
same,MIC,"KPN BAA-1898; antibiotic alone, read-out: MIC ATB alone",> 512 µg/mL
same,MIC,"KPN BAA-1898; substance alone, read-out: MIC",> 512 µg/mL
same,MIC ATB combined with Example 1 @8 μg/ml,PAE UFR48; with Example 1 at 8 μg/ml,<0.031 µg/mL
same,MIC ATB combined with Example 7 @8 μgml,PAE UFR48; with Example 7 at 8 μg/ml,>32 µg/mL
same,MIC ATB combined with Example 9 @4 μg/ml,PAE UFR48; with Example 9 at 4 μg/ml,>32 µg/mL
same,MIC ATB combined with Example 11 @8 μg/ml,PAE UFR48; with Example 11 at 8 μg/ml,>32 µg/mL
same,MIC ATB combined with Example 12 @8 μg/ml,PAE UFR48; with Example 12 at 8 μg/ml,>32 µg/mL
same,MIC ATB combined with Example 13 @8 μg/ml,PAE UFR48; with Example 13 at 8 μg/ml,>32 µg/mL
same,MIC ATB combined with Example 14 @8 μg/ml,PAE UFR48; with Example 14 at 8 μg/ml,>32 µg/mL
same,MIC ATB combined with Example 15 @4 μgml,PAE UFR48; with Example 15 at 4 μg/ml,>32 µg/mL
same,MIC ATB combined with Example 16 @4 μg/ml,PAE UFR48; with Example 16 at 4 μg/ml,>32 µg/mL
same,MIC ATB combined with Example 1 @8 μg/ml,PAE 105250; with Example 1 at 8 μg/ml,0.125 µg/mL
same,MIC ATB combined with Example 7 @8 μgml,PAE 105250; with Example 7 at 8 μg/ml,>32 µg/mL
same,MIC ATB combined with Example 9 @4 μg/ml,PAE 105250; with Example 9 at 4 μg/ml,>32 µg/mL
same,MIC ATB combined with Example 11 @8 μg/ml,PAE 105250; with Example 11 at 8 μg/ml,>32 µg/mL
same,MIC ATB combined with Example 12 @8 μg/ml,PAE 105250; with Example 12 at 8 μg/ml,>32 µg/mL
same,MIC ATB combined with Example 13 @8 μg/ml,PAE 105250; with Example 13 at 8 μg/ml,>32 µg/mL
same,MIC ATB combined with Example 14 @8 μg/ml,PAE 105250; with Example 14 at 8 μg/ml,>32 µg/mL
same,MIC ATB combined with Example 15 @4 μgml,PAE 105250; with Example 15 at 4 μg/ml,>32 µg/mL
same,MIC ATB combined with Example 16 @4 μg/ml,PAE 105250; with Example 16 at 4 μg/ml,>32 µg/mL
same,MIC,"PAE 105250; Pseudomonas aeruginosa, antibiotic alone, read-out: MIC ATB alone",> 512 µg/mL
same,MIC ATB combined with Example 1 @8 μg/ml,PAE UFR90; with Example 1 at 8 μg/ml,<0.031 µg/mL
same,MIC ATB combined with Example 7 @8 μgml,PAE UFR90; with Example 7 at 8 μg/ml,>32 µg/mL
same,MIC ATB combined with Example 9 @4 μg/ml,PAE UFR90; with Example 9 at 4 μg/ml,>32 µg/mL
same,MIC ATB combined with Example 11 @8 μg/ml,PAE UFR90; with Example 11 at 8 μg/ml,>32 µg/mL
same,MIC ATB combined with Example 12 @8 μg/ml,PAE UFR90; with Example 12 at 8 μg/ml,>32 µg/mL
same,MIC ATB combined with Example 13 @8 μg/ml,PAE UFR90; with Example 13 at 8 μg/ml,>32 µg/mL
same,MIC ATB combined with Example 14 @8 μg/ml,PAE UFR90; with Example 14 at 8 μg/ml,>32 µg/mL
same,MIC ATB combined with Example 15 @4 μgml,PAE UFR90; with Example 15 at 4 μg/ml,>32 µg/mL
same,MIC ATB combined with Example 16 @4 μg/ml,PAE UFR90; with Example 16 at 4 μg/ml,>32 µg/mL
